Legend:
Coagulation factor X [1] = molecular target: T1, Coagulation factor X (Homo sapiens, UniProt P00742); assay: Concentration required for inhibition of Coagulation factor X
[2] = Volume distribution in rats; format: ADME, organism-based; details: rat, in vivo; read-out: Vz
[3] = Plasma clearance in rats; format: ADME, organism-based; details: rat
[4] = Half life in rats in hours; format: ADME, organism-based; details: rat, in vivo
[5] = Oral bioavailability in rat; format: ADME, organism-based; details: in vivo
[6] = Plasma clearance in dogs; format: ADME, organism-based, Canis lupus familiaris; details: dog
[7] = Oral bioavailability in dog; format: ADME, organism-based, Canis lupus familiaris; details: in vivo
[8] = Volume distribution in dogs; format: ADME, organism-based, Canis lupus familiaris; details: dog, in vivo; read-out: Vz
[9] = Half life in dogs in hours; format: ADME, organism-based, Canis lupus familiaris; details: dog, in vivo
Oryctolagus cuniculus = species on record: Oryctolagus cuniculus; assay: Antithrombotic activity was evaluated by using rabbit PT assay; format: functional
Coagulation factor X [10] = molecular target: T1, Coagulation factor X; assay: Binding affinity towards Coagulation factor X
Prothrombin = Prothrombin (Homo sapiens, UniProt P00734); assay: Concentration required for inhibition of Coagulation factor II
Serine protease 1 = Serine protease 1 (Homo sapiens, UniProt P07477); assay: Concentration required for inhibition of trypsin
Sequence of Serine protease 1 (P07477 whole entry): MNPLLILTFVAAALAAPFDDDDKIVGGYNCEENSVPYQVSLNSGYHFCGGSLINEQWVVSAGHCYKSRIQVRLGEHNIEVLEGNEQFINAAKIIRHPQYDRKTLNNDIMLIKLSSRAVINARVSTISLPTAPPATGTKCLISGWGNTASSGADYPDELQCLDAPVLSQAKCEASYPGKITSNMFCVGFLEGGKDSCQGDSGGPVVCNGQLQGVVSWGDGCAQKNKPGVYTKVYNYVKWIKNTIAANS

[11] = Oral bioavailability in ratrs; format: ADME, organism-based; details: rat, in vivo

T1 sequence (P00742 41-179 limits assumed): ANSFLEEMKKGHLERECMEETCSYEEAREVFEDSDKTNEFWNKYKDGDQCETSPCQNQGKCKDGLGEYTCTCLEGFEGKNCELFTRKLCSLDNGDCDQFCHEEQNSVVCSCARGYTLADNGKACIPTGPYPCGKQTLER
T1 sequence (P00742 235-488 limits assumed): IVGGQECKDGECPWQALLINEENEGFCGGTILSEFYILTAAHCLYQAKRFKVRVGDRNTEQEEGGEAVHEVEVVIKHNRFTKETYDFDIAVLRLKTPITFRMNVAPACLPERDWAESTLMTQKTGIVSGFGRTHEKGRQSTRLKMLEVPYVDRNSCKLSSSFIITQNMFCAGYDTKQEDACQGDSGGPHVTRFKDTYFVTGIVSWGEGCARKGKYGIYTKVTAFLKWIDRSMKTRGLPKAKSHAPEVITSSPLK

For `C/C(=C(\F)C(=O)Nc1ccc(-c2ccccc2S(N)(=O)=O)cc1Br)c1cc(Br)ccc1N`, which IC50 (Coagulation factor X [1]) is on record?
Its IC50 is greater than 11000 nM.

With `C/C(=C(\F)C(=O)Nc1ccc(-c2ccccc2S(N)(=O)=O)cn1)c1ccc2ccnc(N)c2c1` as the molecule, how does the Vd [2] read?
Its Vd is 2.7 L/kg.

What about the clearance [3] of the same molecule?
Its clearance is 19.1 mL/min/kg.

And the half-life [4]?
The half-life was 1.64 h.

What about the IC50 (Coagulation factor X [1]) of the same molecule?
Its IC50 is 14 nM.

And the bioavailability [5]?
The bioavailability was 13%.

With `C/C(=C(\F)C(=O)Nc1ccc(-c2ccccc2S(N)(=O)=O)cc1)c1cccc(N)c1` as the molecule, how does the IC50 (Coagulation factor X [1]) read?
The IC50 was greater than 11000 nM.

With `C/C(=C(/F)C(=O)Nc1ccc(-c2ccccc2S(N)(=O)=O)cc1)c1ccc2nc(N)nc(N)c2c1` as the molecule, how does the IC50 (Coagulation factor X [1]) read?
The IC50 was greater than 11000 nM.

With `C/C(=C(\F)C(=O)Nc1ccc(-c2ccccc2S(N)(=O)=O)cc1)c1ccc2ccnc(N)c2c1` as the molecule, how does the clearance [6] read?
Its clearance is 11.4 mL/min/kg.

And the bioavailability [7]?
The bioavailability was 36.7%.

What about the Vd [2] of the same molecule?
The Vd was 10 L/kg.

And the Vd [8]?
Its Vd is 6.8 L/kg.

What about the clearance [3] of the same molecule?
Its clearance is 48.7 mL/min/kg.

What about the half-life [4] of the same molecule?
The half-life was 2.38 h.

And the IC50 (Coagulation factor X [1])?
The IC50 was 14 nM.

What about the bioavailability [5] of the same molecule?
Its bioavailability is 6.8%.

What about the half-life [9] of the same molecule?
Its half-life is 7.1 h.

Which IC50 (Coagulation factor X [1]) does the source give for `C/C(=C(\F)C(=O)Nc1ccc(-c2ccccc2S(N)(=O)=O)cc1F)c1cccc(C(=N)S)c1` here?
Its IC50 is 140 nM.

For `C/C(=C(/F)C(=O)Nc1ccc(-c2ccccc2S(N)(=O)=O)cc1)c1ccc2ncnc(N)c2c1`, which IC50 (Coagulation factor X [1]) is on record?
The IC50 was 270 nM.

For `C/C(=C(\F)C(=O)Nc1ccc(-c2ccccc2S(N)(=O)=O)cc1)c1cc(Cl)ccc1C#N`, which IC50 (Coagulation factor X [1]) is on record?
Its IC50 is 9500 nM.

With `C/C(=C(\F)C(=O)Nc1ccc(-c2ccncc2S(C)(=O)=O)cc1)c1ccc2ccnc(N)c2c1` as the molecule, how does the IC50 (Coagulation factor X [1]) read?
The IC50 was 7 nM.

Which IC50 (Coagulation factor X [1]) does the source give for `C/C(=C(\F)C(=O)Nc1ccc(-c2ccccc2C#N)cc1)c1ccc2ccnc(N)c2c1` here?
Its IC50 is 190 nM.

Which Activity (Oryctolagus cuniculus) does the source give for `C/C(=C(\F)C(=O)Nc1ccc(-c2ccccc2S(N)(=O)=O)cc1F)c1ccc2ccnc(N)c2c1` here?
Its Activity is 6.3 µM.

And the Ki (Coagulation factor X [10])?
The Ki was 1.6 nM.

And the Vd [2]?
The Vd was 3.7 L/kg.

What about the IC50 (Prothrombin) of the same molecule?
The IC50 was 6300 nM.

And the clearance [3]?
Its clearance is 25.3 mL/min/kg.

What about the half-life [4] of the same molecule?
Its half-life is 1.7 h.

What about the IC50 (Serine protease 1) of the same molecule?
The IC50 was 9700 nM.

And the IC50 (Coagulation factor X [1])?
The IC50 was 5 nM.

What about the bioavailability [5] of the same molecule?
Its bioavailability is 13.5%.

Which IC50 (Coagulation factor X [1]) does the source give for `C/C(=C(/F)C(=O)Nc1ccc(-c2ccccc2S(N)(=O)=O)cc1)c1ccc2ccnc(N)c2c1` here?
The IC50 was 880 nM.

Which IC50 (Coagulation factor X [1]) does the source give for `COc1ccc(/C(C)=C(/F)C(=O)Nc2ccc(-c3ccccc3S(N)(=O)=O)cc2)c(C#N)c1` here?
Its IC50 is 5700 nM.

For `Nc1nccc2ccc(/C=C\C(=O)Nc3ccc(-c4ccccc4S(N)(=O)=O)cc3)cc12`, which Vd [2] is on record?
The Vd was 7.4 L/kg.

What about the clearance [3] of the same molecule?
Its clearance is 56.4 mL/min/kg.

And the half-life [4]?
Its half-life is 1.51 h.

And the IC50 (Coagulation factor X [1])?
Its IC50 is 78 nM.

What about the bioavailability [5] of the same molecule?
Its bioavailability is 1.5%.

Which IC50 (Coagulation factor X [1]) does the source give for `C/C(Cc1ccc(Br)cc1)=C(\F)C(=O)Nc1ccc(-c2ccccc2S(N)(=O)=O)cc1` here?
Its IC50 is 1800 nM.

For `C/C(=C(\F)C(=O)Nc1ccc(-c2ccccc2S(N)(=O)=O)cc1Cl)c1ccc2ccnc(N)c2c1`, which Activity (Oryctolagus cuniculus) is on record?
The Activity was 9.4 µM.

What about the Ki (Coagulation factor X [10]) of the same molecule?
The Ki was 1.1 nM.

And the bioavailability [11]?
The bioavailability was 35.1%.

And the Vd [2]?
Its Vd is 0.8 L/kg.

And the IC50 (Prothrombin)?
Its IC50 is 5400 nM.

What about the clearance [3] of the same molecule?
Its clearance is 6.7 mL/min/kg.

What about the half-life [4] of the same molecule?
The half-life was 1.43 h.

What about the IC50 (Serine protease 1) of the same molecule?
The IC50 was greater than 11000 nM.

And the IC50 (Coagulation factor X [1])?
Its IC50 is 11 nM.

For `C/C(=C(\F)C(=O)Nc1ccc(-c2ccccc2S(N)(=O)=O)cc1Br)c1cc(Br)ccc1[N+](=O)[O-]`, which IC50 (Coagulation factor X [1]) is on record?
Its IC50 is 2900 nM.

What does the source list for `C/C(=C(\F)C(=O)Nc1ccc(-c2ccccc2S(N)(=O)=O)cc1Br)c1ccc2ccnc(N)c2c1`?
Activity (Oryctolagus cuniculus): 10.3 µM; Ki (Coagulation factor X [10]): 1.3 nM; clearance [6]: 10.8 mL/min/kg; bioavailability [7]: 33.1%; Vd [2]: 0.61 L/kg; Vd [8]: 5.5 L/kg; IC50 (Prothrombin): 4800 nM; clearance [3]: 4.4 mL/min/kg; half-life [4]: 1.6 h; IC50 (Serine protease 1): 2400 nM; IC50 (Coagulation factor X [1]): 7 nM; bioavailability [5]: 30.1%; half-life [9]: 6 h

With `C/C(=C(\F)C(=O)Nc1ccc(-c2ccccc2S(N)(=O)=O)cc1)c1cccc(C(N)=O)c1` as the molecule, how does the IC50 (Coagulation factor X [1]) read?
Its IC50 is 920 nM.

Which IC50 (Coagulation factor X [1]) does the source give for `C/C(=C(\F)C(=O)Nc1ccc(-c2ccncc2[S+](C)[O-])cc1F)c1ccc2ccnc(N)c2c1` (configuration not stated) here?
Its IC50 is 1500 nM.

Which IC50 (Coagulation factor X [1]) does the source give for `C/C(=C(\F)C(=O)Nc1ccc(-c2ccccc2S(N)(=O)=O)cc1)c1cccc(NN)c1` here?
The IC50 was greater than 11000 nM.

With `C/C(=C(\F)C(=O)Nc1ccc(-c2ccccc2S(N)(=O)=O)cc1)c1cc(N)ccc1[N+](=O)[O-]` as the molecule, how does the IC50 (Coagulation factor X [1]) read?
The IC50 was 250 nM.

Which IC50 (Coagulation factor X [1]) does the source give for `C/C(=C(\F)C(=O)Nc1ccc(-c2ccnc(C(N)=O)c2)cc1)c1ccc2ccnc(N)c2c1` here?
Its IC50 is 180 nM.

Source: ChEMBL document CHEMBL1134849, “Substituted acrylamides as factor Xa inhibitors: improving bioavailability by P1 modification” (Bioorg Med Chem Lett, 2002)
